Structures can show the parent of a compound that is named as a salt. One block for each molecule: values may come before it.
Experiment: collision cross section in nitrogen (drift tube, single-field); higher = larger gas-phase ion size
[1] = ion type: [M+Na], ion source: ESI, ion mode: Positive
[2] = ion type: [M-H], ion source: ESI, ion mode: Negative
[3] = ion type: [M+H], ion source: ESI, ion mode: Positive
[4] = ion type: [M+H], ion source: APCI, ion mode: Positive
[5] = ion type: [M+], ion source: APCI, ion mode: Positive
[6] = ion source: APCI, ion mode: Positive, ion type: [M]+ (permanent cation)
[7] = ion source: ESI, ion mode: Positive, ion type: [M]+ (permanent cation)
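Note: chemical standards at 10 µM analysed by drift tube IMS-QTOF MS in about 3.95 torr nitrogen, mean of duplicate injections differing ≤1%, mass error below 10 ppm.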

Compound: CCCCCCCCOC(=O)c1ccccc1C(=O)OCCCCCCCC [Di-n-octyl phthalate]
- collision cross section in nitrogen [1]: 214.6 Å²

Compound: CCCN(CCC)c1c([N+](=O)[O-])cc(S(C)(=O)=O)cc1[N+](=O)[O-] [Nitralin]
- collision cross section in nitrogen [2]: 177 Å²

Compound: OC(c1ccc(Cl)cc1)(c1ccc(Cl)cc1)c1cccnc1 [Parinol]
- collision cross section in nitrogen [4]: 183.7 Å²
- collision cross section in nitrogen [3]: 183.1 Å²
- collision cross section in nitrogen [2]: 177.2 Å²

Compound: NC(=S)c1c(Cl)cccc1Cl [Chlorthiamid]
- collision cross section in nitrogen [2]: 135.9 Å²

Compound: CCCC(Cn1cncn1)c1ccc(Cl)cc1Cl (stereo not given) [Penconazole]
- collision cross section in nitrogen [4]: 166.3 Å²
- collision cross section in nitrogen [3]: 166.1 Å²

Compound: CCC(C)n1c(=O)[nH]c(C)c(Br)c1=O (stereo not given) [Bromacil]
- collision cross section in nitrogen [2]: 146.6 Å²

Compound: Oc1ccc(C(c2ccc(O)cc2)(C(F)(F)F)C(F)(F)F)cc1 [Bisphenol AF]
- collision cross section in nitrogen [2]: 165.6 Å²

Compound: CCC(C)(CCCC(C)C)OC(C)=O (stereo not given) [3,7-Dimethyloctan-3-yl acetate]
- collision cross section in nitrogen [2]: 154.8 Å²

Compound: CCC(CC)Nc1c([N+](=O)[O-])cc(C)c(C)c1[N+](=O)[O-] [Pendimethalin]
- collision cross section in nitrogen [2]: 163.7 Å²

Compound: c1ccc2c(c1)ccc1ncccc12 [Benzo(f)quinoline]
- collision cross section in nitrogen [4]: 134.7 Å²
- collision cross section in nitrogen [3]: 134.8 Å²
- collision cross section in nitrogen [5]: 130.3 Å²

Compound: CC1=NN(c2cccc(S(=O)(=O)O)c2)C(=O)C1
- collision cross section in nitrogen [3]: 161.7 Å²
- collision cross section in nitrogen [1]: 161.9 Å²
- collision cross section in nitrogen [2]: 156.5 Å²

Compound: c1cc2ccc3cccc4ccc(c1)c2c34 [Pyrene]
- collision cross section in nitrogen [5]: 136.3 Å²

Compound: c1ccc(C[n+]2cccc3ccccc32)cc1 [1-Benzylquinolinium chloride]
- collision cross section in nitrogen [6]: 147.6 Å²
- collision cross section in nitrogen [7]: 148 Å²

Compound: O=P(OCCCl)(OCCCl)OCCCl [Tris(2-chloroethyl) phosphate]
- collision cross section in nitrogen [1]: 160.2 Å²

Compound: O=C(NC(=O)c1ccccc1Cl)Nc1ccc(OC(F)(F)F)cc1 [Triflumuron]
- collision cross section in nitrogen [1]: 186.6 Å²
- collision cross section in nitrogen [2]: 179.1 Å²

Compound: Cc1ccc(N)c(S(=O)(=O)O)c1 [2-Amino-5-methylbenzenesulfonic acid]
- collision cross section in nitrogen [2]: 137.9 Å²

Compound: c1ccc(Nc2ccc3ccccc3c2)cc1 [N-Phenyl-2-naphthylamine]
- collision cross section in nitrogen [4]: 150 Å²
- collision cross section in nitrogen [3]: 151.3 Å²
- collision cross section in nitrogen [5]: 149.2 Å²

Compound: CCCCOCCOCCOCCOCCO [3,6,9,12-Tetraoxahexadecan-1-ol]
- collision cross section in nitrogen [4]: 157.1 Å²
- collision cross section in nitrogen [1]: 160.4 Å²

Compound: CCCCC(CC)COP(=O)(O)O (stereo not given) [2-Ethylhexyl dihydrogen phosphate]
- collision cross section in nitrogen [2]: 150.7 Å²

Compound: O=C1NC(=O)c2cccc3cccc1c23 [1H-Benzo[de]isoquinoline-1,3(2H)-dione]
- collision cross section in nitrogen [2]: 140.8 Å²

Compound: O=C1CCc2ccccc2O1 [3,4-Dihydrocoumarin]
- collision cross section in nitrogen [2]: 127.6 Å²

Compound: CCCCSP(=O)(SCCCC)SCCCC [Tribufos]
- collision cross section in nitrogen [4]: 177.5 Å²
- collision cross section in nitrogen [3]: 177.2 Å²
- collision cross section in nitrogen [1]: 194.4 Å²

Compound: O=C(NS(=O)(=O)/C=C/c1cccs1)c1ccc(F)cc1Br
- collision cross section in nitrogen [1]: 189 Å²
- collision cross section in nitrogen [2]: 178 Å²

Compound: CCCCOCCOC(=O)c1ccccc1C(=O)OCCOCCCC [Bis(2-butoxyethyl) phthalate]
- collision cross section in nitrogen [1]: 187.5 Å²

Compound: CCCCn1cc[n+](C)c1 [1-Butyl-3-methylimidazolium chloride]
- collision cross section in nitrogen [6]: 129 Å²
- collision cross section in nitrogen [7]: 128.9 Å²

Compound: O=C(O)C(F)(F)C(F)(F)C(F)(F)C(F)(F)C(F)(F)C(F)(F)C(F)(F)C(F)(F)C(F)(F)C(F)(F)F [Perfluoroundecanoic acid]
- collision cross section in nitrogen [2]: 183.9 Å²

Compound: c1ccc(-c2nc3ccccc3[nH]2)cc1 [2-Phenylbenzimidazole]
- collision cross section in nitrogen [4]: 142.8 Å²
- collision cross section in nitrogen [3]: 143 Å²
- collision cross section in nitrogen [2]: 142.6 Å²

Compound: CCc1ccc(C(=O)NN(C(=O)c2cc(C)cc(C)c2)C(C)(C)C)cc1 [Tebufenozide]
- collision cross section in nitrogen [1]: 201.3 Å²
- collision cross section in nitrogen [2]: 193.6 Å²

Compound: [O-][Cl+2]([O-])O [Potassium chlorate]
- collision cross section in nitrogen [2]: 104 Å²

Compound: Nc1cccnc1 [3-Pyridinamine]
- collision cross section in nitrogen [4]: 115 Å²
- collision cross section in nitrogen [3]: 115.2 Å²

Continued, values first:

- collision cross section in nitrogen [2]: 218 Å²
Compound: COc1ccccc1N=Nc1c(S(=O)(=O)O)cc2cc(S(=O)(=O)O)cc(NC(C)=O)c2c1O [C.I. Acid Violet 12, disodium salt]

- collision cross section in nitrogen [3]: 134.9 Å²
Compound: OCCNCc1ccccc1 [N-Benzylethanolamine]

- collision cross section in nitrogen [2]: 180 Å²
Compound: O=C1CN(N=Cc2ccc(-c3ccc([N+](=O)[O-])cc3)o2)C(=O)N1 [Dantrolene sodium]

- collision cross section in nitrogen [2]: 189.5 Å²
Compound: CC(=O)[C@H]1[C@H](C#N)C[C@H]2[C@@H]3CC=C4C[C@@H](O)CC[C@]4(C)[C@H]3CC[C@@]21C [Pregnenolone carbonitrile]

- collision cross section in nitrogen [2]: 137.7 Å²
Compound: CCOC(=O)c1cccc(O)c1 [Ethyl 3-hydroxybenzoate]

- collision cross section in nitrogen [4]: 144.5 Å²
- collision cross section in nitrogen [3]: 144.1 Å²
- collision cross section in nitrogen [1]: 149.7 Å²
Compound: CCOc1ccc(NC(N)=O)cc1 [Dulcin]

- collision cross section in nitrogen [2]: 142 Å²
Compound: CCOC(=O)c1ccccc1C(=O)O [Monoethyl phthalate]

- collision cross section in nitrogen [3]: 187.6 Å²
- collision cross section in nitrogen [1]: 195.9 Å²
- collision cross section in nitrogen [2]: 186.6 Å²
Compound: CC1Cc2ccccc2N1NC(=O)c1ccc(Cl)c(S(N)(=O)=O)c1 (stereo not given) [Indapamide]

- collision cross section in nitrogen [2]: 170 Å²
Compound: CCCCCCCCCCCCCOS(=O)(=O)O [Sodium tridecyl sulfate]

- collision cross section in nitrogen [1]: 216.3 Å²
- collision cross section in nitrogen [2]: 204.7 Å²
Compound: CCc1cc(C2=C(C(=O)O)N(c3ccccc3C(F)(F)F)S(=O)(=O)c3ccccc32)cc2c1OCO2 [Fandosentan potassium salt]

- collision cross section in nitrogen [2]: 120.5 Å²
Compound: Cc1cc(=O)[nH]c(=O)[nH]1 [6-Methyluracil]

- collision cross section in nitrogen [2]: 137.4 Å²
Compound: CCCCC(CC)C(=O)O (stereo not given) [Barium bis(2-ethylhexanoate)]

- collision cross section in nitrogen [3]: 142.7 Å²
- collision cross section in nitrogen [2]: 145.4 Å²
Compound: Nc1c2c(nc3ccccc13)CCCC2 [Tacrine]

- collision cross section in nitrogen [2]: 163.6 Å²
Compound: CCCC/C=C\CCCCCCCCCC=O [(Z)-11-Hexadecenal]

- collision cross section in nitrogen [2]: 177.2 Å²
Compound: CC[C@H](c1ccc(O)cc1)[C@@H](CC)c1ccc(O)cc1 [Hexestrol]

- collision cross section in nitrogen [4]: 146.1 Å²
- collision cross section in nitrogen [3]: 145.7 Å²
Compound: c1cc(CCCc2ccncc2)ccn1 [4,4'-Propane-1,3-diyldipyridine]

- collision cross section in nitrogen [1]: 184.6 Å²
Compound: CCOC(=O)NCCOc1ccc(Oc2ccccc2)cc1 [Fenoxycarb]

- collision cross section in nitrogen [4]: 268.1 Å²
- collision cross section in nitrogen [1]: 261.6 Å²
- collision cross section in nitrogen [5]: 269.1 Å²
- collision cross section in nitrogen [2]: 268.7 Å²
Compound: Cc1cc(CCC(=O)OCC(C)(C)C2OCC3(CO2)COC(C(C)(C)COC(=O)CCc2cc(C)c(O)c(C(C)(C)C)c2)OC3)cc(C(C)(C)C)c1O (stereo not given) [Sumilizer GA 80]

- collision cross section in nitrogen [1]: 194.1 Å²
Compound: COCN(COC)c1nc(N(COC)COC)nc(N(COC)COC)n1 [Hexa(methoxymethyl)melamine]

- collision cross section in nitrogen [2]: 169.9 Å²
Compound: CCCCCCCCCCCCCOP(=O)(O)O [Monotridecyl phosphate]

- collision cross section in nitrogen [2]: 231.8 Å²
Compound: CC(=O)Nc1ccc(N=Nc2c(S(=O)(=O)O)cc3cc(S(=O)(=O)O)cc(NC(C)=O)c3c2O)cc1 [C.I. Food Red 11]

- collision cross section in nitrogen [2]: 124.2 Å²
Compound: C=C(C)CS(=O)(=O)O [Sodium 2-methylprop-2-ene-1-sulfonate]

- collision cross section in nitrogen [2]: 141.6 Å²
Compound: N[C@@H](Cc1ccc(O)c(O)c1)C(=O)O [Levodopa]

- collision cross section in nitrogen [1]: 160.6 Å²
- collision cross section in nitrogen [2]: 162.8 Å²
Compound: CC1(C)OC[C@@H]2O[C@@]3(C(=O)O)OC(C)(C)O[C@H]3[C@@H]2O1 [Diprogulic acid]

- collision cross section in nitrogen [2]: 135.2 Å²
Compound: Cc1ccc(S(=O)(=O)O)cc1 [Sodium 4-methylbenzenesulfonate]

- collision cross section in nitrogen [1]: 187.7 Å²
- collision cross section in nitrogen [2]: 192.6 Å²
Compound: CCCCCCCCCCO[C@@H]1O[C@H](CO)[C@@H](O)[C@H](O)[C@H]1O [Decyl beta-D-glucopyranoside]

- collision cross section in nitrogen [4]: 140.2 Å²
- collision cross section in nitrogen [3]: 140.6 Å²
Compound: Nc1nc(N)nc(-c2ccccc2)n1 [6-Phenyl-1,3,5-triazine-2,4-diamine]

- collision cross section in nitrogen [2]: 150.3 Å²
Compound: Nc1ccc2cc(S(=O)(=O)O)ccc2c1 [6-Aminonaphthalene-2-sulfonic acid]

- collision cross section in nitrogen [2]: 182 Å²
Compound: CC(C)C1=CC2=CC[C@@H]3[C@](C)(CCC[C@@]3(C)C(=O)O)[C@H]2CC1 [Sodium abietate]

- collision cross section in nitrogen [3]: 156.5 Å²
Compound: CCCCCc1ccc(N)cc1 [4-Pentylaniline]

- collision cross section in nitrogen [2]: 137.3 Å²
Compound: CCCCCCC(=O)O [Heptanoic acid]

- collision cross section in nitrogen [4]: 137.5 Å²
- collision cross section in nitrogen [2]: 135.2 Å²
Compound: CCc1cc(C(N)=S)ccn1 [Ethionamide]

- collision cross section in nitrogen [4]: 153.4 Å²
- collision cross section in nitrogen [3]: 152.9 Å²
- collision cross section in nitrogen [1]: 162.2 Å²
Compound: CNC(=O)C(c1ccccc1)c1ccccc1 [N-methyl-alpha-phenylbenzeneacetamide]

- collision cross section in nitrogen [2]: 138.2 Å²
Compound: CC(=O)Nc1ccc(C)c(Cl)c1 [N-(3-Chloro-4-methylphenyl)acetamide]

From the supplement of paper PMC12317010
